# In ChEMBL document CHEMBL5375992, “Design and Development of IKZF2 and CK1α Dual Degraders” (J Med Chem, 2023):
# Active and inactive are the calls of the source. No cut-off for these calls is given here.
# Key:
# [1] = target: T1, Protein cereblon/Zinc finger protein Helios (Homo sapiens) (UniProt Q96SW2+Q9UKS7); experiment: Protac activity at CRBN/IKZF2 in human MOLM-13 cells at 25 uM incubated for 24 hrs by Western blotting analysis relative to control; type: cell-based
# [2] = target: T1, Protein cereblon/Zinc finger protein Helios (Homo sapiens); experiment: Protac activity at CRBN/IKZF2 in human MOLM-13 cells assessed as relative ratio at 25 uM incubated for 24 hrs by Western blotting analysis relative to DMSO; type: cell-based
# [3] = target: T2, Cereblon/Ikaros (Homo sapiens) (UniProt Q96SW2+Q13422); experiment: Protac activity at CRBN/IKZF1 in human MOLM-13 cells assessed as relative ratio at 25 uM incubated for 24 hrs by Western blotting analysis relative to DMSO; type: cell-based
# [4] = target: T2, Cereblon/Ikaros (Homo sapiens); experiment: Protac activity at CRBN/IKZF1 in human MOLM-13 cells at 25 uM incubated for 24 hrs by Western blotting analysis relative to control; type: cell-based
# [5] = target: T2, Cereblon/Ikaros (Homo sapiens); experiment: Protac activity at CRBN/IKZF1 (unknown origin) transfected in HEK293T cells at 100 nM incubated for 24 hrs by flow cytometry analysis relative to control; type: cell-based
# [6] = target: T1, Protein cereblon/Zinc finger protein Helios (Homo sapiens); experiment: Protac activity at CRBN/IKZF2 (unknown origin) transfected in HEK293T cells at 100 nM incubated for 24 hrs by flow cytometry analysis relative to control; type: cell-based
# [7] = Solubility of compound in DMSO; type: physicochemical
# [8] = target: Cereblon/Casein kinase I alpha (Homo sapiens) (UniProt P48729+Q96SW2); experiment: Protac activity at CRBN/CK1alpha (unknown origin) transfected in HEK293T cells at 100 nM incubated for 24 hrs by flow cytometry analysis relative to control; type: cell-based
# [9] = target: Protein cereblon/Eukaryotic peptide chain release factor GTP-binding subunit ERF3A (Homo sapiens) (UniProt Q96SW2+P15170); experiment: Protac activity at CRBN/GSPT1 (unknown origin) transfected in HEK293T cells at 100 nM incubated for 24 hrs by flow cytometry analysis relative to control; type: cell-based
# [10] = Metabolic stability in mouse liver microsomes assessed as intrinsic clearance preincubated with NADPH and UDPGA for 5 mins followed by compound addition and measured upto 60 mins by LC-MS/MS analysis; type: ADME, Microsome; details: read-out: CLH
# [11] = Metabolic stability in mouse liver microsomes assessed as half life preincubated with NADPH and UDPGA for 5 mins followed by compound addition and measured upto 60 mins by LC-MS/MS analysis; type: ADME, Microsome
# T1 sequence (Q96SW2 whole entry, looked up): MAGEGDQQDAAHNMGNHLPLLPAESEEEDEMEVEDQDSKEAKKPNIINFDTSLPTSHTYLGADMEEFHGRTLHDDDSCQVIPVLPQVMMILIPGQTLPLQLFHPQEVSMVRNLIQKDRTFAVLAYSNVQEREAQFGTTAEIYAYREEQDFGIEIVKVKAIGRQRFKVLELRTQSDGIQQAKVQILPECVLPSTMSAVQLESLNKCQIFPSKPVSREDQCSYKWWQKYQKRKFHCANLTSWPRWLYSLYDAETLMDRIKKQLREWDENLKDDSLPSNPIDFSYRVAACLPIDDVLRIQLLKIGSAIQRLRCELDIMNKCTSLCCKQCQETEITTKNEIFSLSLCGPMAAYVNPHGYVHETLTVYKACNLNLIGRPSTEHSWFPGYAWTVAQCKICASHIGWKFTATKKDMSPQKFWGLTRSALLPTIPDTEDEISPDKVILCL
# T1 sequence (Q9UKS7 whole entry, looked up): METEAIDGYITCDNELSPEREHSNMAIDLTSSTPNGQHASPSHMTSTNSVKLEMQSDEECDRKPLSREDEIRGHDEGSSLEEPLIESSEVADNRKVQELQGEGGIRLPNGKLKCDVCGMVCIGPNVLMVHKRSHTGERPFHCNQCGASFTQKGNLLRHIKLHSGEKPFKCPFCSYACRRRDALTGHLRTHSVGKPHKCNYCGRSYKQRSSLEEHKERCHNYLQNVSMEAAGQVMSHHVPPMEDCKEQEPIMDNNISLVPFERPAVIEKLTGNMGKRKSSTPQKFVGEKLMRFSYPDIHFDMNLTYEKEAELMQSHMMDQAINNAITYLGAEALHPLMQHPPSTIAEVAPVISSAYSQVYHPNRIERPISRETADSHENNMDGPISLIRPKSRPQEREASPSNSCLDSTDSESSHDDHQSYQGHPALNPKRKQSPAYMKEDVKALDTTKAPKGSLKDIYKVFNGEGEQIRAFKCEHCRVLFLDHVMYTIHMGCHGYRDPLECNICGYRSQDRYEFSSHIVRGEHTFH
# Sequence of Protein cereblon/Eukaryotic peptide chain release factor GTP-binding subunit ERF3A (Homo sapiens) (P15170 whole entry, looked up): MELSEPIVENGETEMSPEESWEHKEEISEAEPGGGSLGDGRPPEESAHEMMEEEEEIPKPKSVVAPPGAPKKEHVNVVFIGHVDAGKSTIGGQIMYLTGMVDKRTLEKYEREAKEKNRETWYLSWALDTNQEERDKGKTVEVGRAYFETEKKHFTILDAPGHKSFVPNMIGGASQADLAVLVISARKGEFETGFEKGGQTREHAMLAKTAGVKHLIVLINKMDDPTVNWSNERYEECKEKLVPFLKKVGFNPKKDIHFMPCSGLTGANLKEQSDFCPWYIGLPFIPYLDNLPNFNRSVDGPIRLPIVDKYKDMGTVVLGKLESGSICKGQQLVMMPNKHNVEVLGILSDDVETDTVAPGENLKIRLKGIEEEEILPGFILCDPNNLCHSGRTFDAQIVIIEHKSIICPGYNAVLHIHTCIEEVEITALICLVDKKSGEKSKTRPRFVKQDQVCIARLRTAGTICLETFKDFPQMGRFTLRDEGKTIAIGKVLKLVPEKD
# Sequence of Protein cereblon/Eukaryotic peptide chain release factor GTP-binding subunit ERF3A (Homo sapiens) (Q96SW2 whole entry, looked up): as the sequence (Q96SW2 whole entry, looked up) above
# Sequence of Cereblon/Casein kinase I alpha (Homo sapiens) (P48729 2-337 limits assumed): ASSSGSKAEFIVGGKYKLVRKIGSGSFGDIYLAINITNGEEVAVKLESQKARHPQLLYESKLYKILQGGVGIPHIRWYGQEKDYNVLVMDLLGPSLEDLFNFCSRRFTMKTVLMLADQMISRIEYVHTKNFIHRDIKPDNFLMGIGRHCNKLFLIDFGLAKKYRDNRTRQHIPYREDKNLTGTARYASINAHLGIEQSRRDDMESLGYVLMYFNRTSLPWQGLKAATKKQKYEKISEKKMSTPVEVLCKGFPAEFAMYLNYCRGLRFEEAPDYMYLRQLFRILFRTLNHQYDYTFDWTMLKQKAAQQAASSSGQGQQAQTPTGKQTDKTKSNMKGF
# Sequence of Cereblon/Casein kinase I alpha (Homo sapiens) (Q96SW2 whole entry partner): as the sequence (Q96SW2 whole entry, looked up) above
Ratio [2],Ratio [3],Activity [5],Activity [6],Activity [8],Activity [9],Structure (SMILES),also measured
0.36,0.15,–,–,–,–,O=C1CCC(N2Cc3cc(NCc4ccc5ccccc5c4)ccc3C2=O)C(=O)N1 (configuration not stated),Activity [1]: Active
–,–,–,–,–,–,COc1ccc2ccc(CNc3ccc4c(c3)CN(C3CCC(=O)NC3=O)C4=O)cc2c1 (configuration not stated),Activity [1]: inactive; Activity [4]: Active
–,–,9%,73%,64%,14%,Cc1ccc2c(c1)OCC(C(=O)Nc1ccc3c(c1)CN(C1CCC(=O)NC1=O)C3=O)=C2 (configuration not stated),"solubility ([7]; DMSO, read-out: solubility): 50 mM"
–,–,62%,74%,58%,9%,O=C1CCC(N2Cc3cc(NC(=O)c4cccc(Oc5ccccc5)c4)ccc3C2=O)C(=O)N1 (configuration not stated),–
1.51,0.26,–,–,–,–,O=C1CCC(N2Cc3cc(NCCc4ccc5ccccc5c4)ccc3C2=O)C(=O)N1 (configuration not stated),Activity [1]: inactive; Activity [4]: Active
–,–,13%,81%,46%,0%,O=C1CCC(N2Cc3cc(NC(=O)C4=COc5ccccc5O4)ccc3C2=O)C(=O)N1 (configuration not stated),–
1.45,0.09,–,–,–,–,O=C1CCC(N2C(=O)c3ccc(NCc4ccc5ccccc5c4)cc3C2=O)C(=O)N1 (configuration not stated),Activity [1]: Active; Activity [4]: inactive
0.43,0.64,–,–,–,–,COc1ccc2cc(CNc3ccc4c(c3)CN(C3CCC(=O)NC3=O)C4=O)ccc2c1 (configuration not stated),Activity [1]: Active; Activity [4]: Active
–,–,–,62%,64%,–,COc1cnc2cc(C(=O)Nc3ccc4c(c3)CN(C3CCC(=O)NC3=O)C4=O)ccc2c1 (configuration not stated),microsomal CLint [10]: < 5.4 µL/min/mg; half-life [11]: > 4.25 h
1.41,0.73,–,–,–,–,O=C1CCC(N2Cc3cc(NCc4ccc5cc(Br)ccc5c4)ccc3C2=O)C(=O)N1 (configuration not stated),–
0.94,0.24,–,–,–,–,O=C1CCC(N2Cc3cc(NCc4ccc5c(c4)oc4ccccc45)ccc3C2=O)C(=O)N1 (configuration not stated),Activity [1]: Active; Activity [4]: Active
–,–,4%,17%,12%,10%,CC(=O)Nc1ccc2c(c1)CN(C1CCC(=O)NC1=O)C2=O (configuration not stated),–
0.83,0.66,–,–,–,–,O=C1CCC(N2Cc3cc(NCc4cccc5ccccc45)ccc3C2=O)C(=O)N1 (configuration not stated),–
0.19,0.08,–,–,–,–,O=C1CCC(N2Cc3cc(NCc4ccc5oc6ccccc6c5c4)ccc3C2=O)C(=O)N1 (configuration not stated),Activity [1]: Active
–,–,–,–,–,–,O=C1CCC(N2Cc3cc(NCc4ccc5ccncc5c4)ccc3C2=O)C(=O)N1 (configuration not stated),Activity [4]: Active
–,–,–,88%,72%,–,COc1cc2ccc(C(=O)Nc3ccc4c(c3)CN(C3CCC(=O)NC3=O)C4=O)cc2cn1 (configuration not stated),–
–,–,15%,84%,66%,11%,O=C1CCC(N2Cc3cc(NC(=O)C4=Cc5ccccc5OC4)ccc3C2=O)C(=O)N1 (configuration not stated),–
0.65,0.48,–,–,–,–,COc1ccc(CNc2ccc3c(c2)CN(C2CCC(=O)NC2=O)C3=O)cc1 (configuration not stated),–
–,–,6%,81%,50%,2%,O=C1CCC(N2Cc3cc(NC(=O)c4ccc5occc5c4)ccc3C2=O)C(=O)N1 (configuration not stated),–
0.66,0.04,–,–,–,–,O=C1CCC(N2Cc3cc(NCc4cccc(OCc5ccccc5)c4)ccc3C2=O)C(=O)N1 (configuration not stated),–
–,–,–,–,–,–,O=C1CCC(N2Cc3cc(NCc4ccc5cc(F)ccc5c4)ccc3C2=O)C(=O)N1 (configuration not stated),Activity [1]: Active; Activity [4]: Active
–,–,13%,74%,65%,2%,COc1cc(Br)cc2c1OCC(C(=O)Nc1ccc3c(c1)CN(C1CCC(=O)NC1=O)C3=O)=C2 (configuration not stated),"solubility ([7]; DMSO, read-out: solubility): 50 mM"
0.84,0.32,–,–,–,–,O=C1CCC(N2Cc3cc(NCc4cccc5c4oc4ccccc45)ccc3C2=O)C(=O)N1 (configuration not stated),Activity [1]: Active; Activity [4]: Active
–,–,39%,75%,59%,24%,COc1cccc2c1C=C(C(=O)Nc1ccc3c(c1)CN(C1CCC(=O)NC1=O)C3=O)CO2 (configuration not stated),"solubility ([7]; DMSO, read-out: solubility): 50 mM"
–,–,3%,42%,33%,0%,O=C1CCC(N2Cc3cc(NC(=O)c4ccc5ncsc5c4)ccc3C2=O)C(=O)N1 (configuration not stated),–
–,–,11%,85%,66%,6%,O=C1CCC(N2Cc3cc(NC(=O)C4=Cc5ccc(OC(F)(F)F)cc5OC4)ccc3C2=O)C(=O)N1 (configuration not stated),"solubility ([7]; DMSO, read-out: solubility): 50 mM"
1.04,0.59,–,–,–,–,O=C1CCC(N2Cc3cc(NCc4ccccc4)ccc3C2=O)C(=O)N1 (configuration not stated),–

Ratio [2],Ratio [3],Activity [5],Activity [6],Activity [8],Activity [9],Structure (SMILES),also measured
–,–,7%,49%,36%,5%,O=C1CCC(N2Cc3cc(NC(=O)c4ccc5c(c4)OCO5)ccc3C2=O)C(=O)N1 (configuration not stated),–
0.95,0.39,–,–,–,–,O=C1CCC(N2Cc3cc(NCc4ccc5c6c4CC=C4C=CC=C(C=C5)C46)ccc3C2=O)C(=O)N1 (configuration not stated),–
–,–,97%,93%,64%,25%,O=C1CCC(N2Cc3cc(NC(=O)Cc4cccc5ccccc45)ccc3C2=O)C(=O)N1 (configuration not stated),–
–,–,12%,49%,47%,5%,O=C1CCC(N2Cc3cc(NC(=O)C4=Cc5cc(Br)cc(Br)c5OC4)ccc3C2=O)C(=O)N1 (configuration not stated),"solubility ([7]; DMSO, read-out: solubility): 50 mM"
–,–,–,–,–,–,O=C1CCC(N2Cc3cc(NCc4cccc5cnccc45)ccc3C2=O)C(=O)N1 (configuration not stated),Activity [4]: Active
–,–,–,–,–,–,COc1cc2c(OC)cccc2cc1CNc1ccc2c(c1)CN(C1CCC(=O)NC1=O)C2=O (configuration not stated),Activity [1]: Active
0.76,0.13,–,–,–,–,O=C1CCC(N2Cc3cc(NCc4cc5ccccc5o4)ccc3C2=O)C(=O)N1 (configuration not stated),–
–,–,60%,83%,64%,9%,O=C1CCC(N2Cc3cc(NC(=O)c4cccc(C(=O)c5ccccc5)c4)ccc3C2=O)C(=O)N1 (configuration not stated),–
0.84,0.54,–,–,–,–,O=C1CCC(N2Cc3cc(NCc4ccc5cc(O)ccc5c4)ccc3C2=O)C(=O)N1 (configuration not stated),–
–,–,–,–,–,–,O=C1CCC(N2Cc3cc(NCc4ccc5ccccc5n4)ccc3C2=O)C(=O)N1 (configuration not stated),Activity [4]: Active
–,–,–,–,–,–,COc1cc(CNc2ccc3c(c2)CN(C2CCC(=O)NC2=O)C3=O)cc2ccccc12 (configuration not stated),Activity [1]: inactive; Activity [4]: Active
–,–,–,–,–,–,COc1cccc2ccc(CNc3ccc4c(c3)CN(C3CCC(=O)NC3=O)C4=O)cc12 (configuration not stated),Activity [1]: inactive; Activity [4]: Active
–,–,13%,71%,60%,8%,O=C(/C=C/c1ccccc1)Nc1ccc2c(c1)CN(C1CCC(=O)NC1=O)C2=O (configuration not stated),–
–,–,13%,80%,62%,2%,O=C1CCC(N2Cc3cc(NC(=O)c4cc5ccccc5o4)ccc3C2=O)C(=O)N1 (configuration not stated),solubility [7]: 25 mM
–,–,–,–,–,–,O=C1CCC(N2Cc3cc(NCc4ccc5ncccc5c4)ccc3C2=O)C(=O)N1 (configuration not stated),Activity [4]: Active
–,–,16%,75%,66%,9%,COc1ccc2c(c1)C=C(C(=O)Nc1ccc3c(c1)CN(C1CCC(=O)NC1=O)C3=O)CO2 (configuration not stated),"solubility ([7]; DMSO, read-out: solubility): 50 mM"
–,–,4%,57%,60%,9%,COc1ccc2c(c1)OCC(C(=O)Nc1ccc3c(c1)CN(C1CCC(=O)NC1=O)C3=O)=C2 (configuration not stated),"solubility ([7]; DMSO, read-out: solubility): 50 mM"
–,–,5%,78%,61%,10%,O=C1CCC(N2Cc3cc(NC(=O)c4ccc(Oc5ccccc5)cc4)ccc3C2=O)C(=O)N1 (configuration not stated),–
–,–,16%,74%,51%,1%,O=C1CCC(N2Cc3cc(NC(=O)c4ccc5c(c4)CCCC5)ccc3C2=O)C(=O)N1 (configuration not stated),–
–,–,8%,70%,65%,3%,O=C1CCC(N2Cc3cc(NC(=O)C4=Cc5ccc(C(F)(F)F)cc5OC4)ccc3C2=O)C(=O)N1 (configuration not stated),"solubility ([7]; DMSO, read-out: solubility): 50 mM"
–,–,–,–,–,–,O=C1CCC(N2Cc3cc(NCc4cc5ccccc5cn4)ccc3C2=O)C(=O)N1 (configuration not stated),Activity [4]: Active
0.74,0.65,–,–,–,–,CN(C)c1ccc2cc(CNc3ccc4c(c3)CN(C3CCC(=O)NC3=O)C4=O)ccc2c1 (configuration not stated),Activity [1]: Active; Activity [4]: Active
–,–,13%,80%,62%,22%,O=C1CCC(N2Cc3cc(NC(=O)C4=Cc5ccc(Br)cc5OC4)ccc3C2=O)C(=O)N1 (configuration not stated),"solubility ([7]; DMSO, read-out: solubility): 50 mM"
0.79,0.14,–,–,–,–,O=C1CCC(N2Cc3cc(NCc4cccc(Oc5ccccc5)c4)ccc3C2=O)C(=O)N1 (configuration not stated),–
–,–,9%,38%,36%,5%,O=C1CCC(N2Cc3cc(NC(=O)c4ccc5c(c4)OCCO5)ccc3C2=O)C(=O)N1 (configuration not stated),–
–,–,–,60%,55%,–,O=C1CCC(N2Cc3cc(NC(=O)c4ccc5cc(O)ccc5c4)ccc3C2=O)C(=O)N1 (configuration not stated),–
